# From publication PMC6792352, “Limited Chemical Structural Diversity Found to Modulate Thyroid Hormone Receptor in the Tox21 Chemical Library” (Environmental Health Perspectives, 2019)
# Counter-ions that a name gives are not always drawn.
# Assay: in vitro
# Conditions: rat, gh3-tre-luc cells, AC50 (uM) modified / 1000
row,SMILES,CC50 at 24 h [µM]
1,O=[N+]([O-])c1c2ccccc2cc2ccccc12 [9-Nitroanthracene],> 90
2,O=C(CCCCCCCCCCCCC1CCCC1)Nc1ccc(S(=O)(=O)c2ccc(NC(=O)CCCCCCCCCCCCC3CCCC3)cc2)cc1 [Chaulmosulfone],> 50
3,O=C(O)[C@H]1CN(C/C=C/P(=O)(O)O)CCN1 [Midafotel],> 50
4,CC(CCO)CCc1ccccc1 (stereo not shown) [3-Methyl-5-phenylpentan-1-ol],> 90
5,O=C1c2ccccc2C(=O)c2c1ccc(O)c2O [Alizarin],> 50
6,CC(=O)O[C@H]1C[C@H](O[C@H]2[C@@H](O)C[C@H](O[C@H]3[C@@H](O)C[C@H](O[C@H]4CC[C@@]5(C)[C@H](CC[C@@H]6[C@@H]5CC[C@]5(C)[C@@H](C7=CC(=O)OC7)CC[C@]65O)C4)O[C@@H]3C)O[C@@H]2C)O[C@H](C)[C@H]1O[C@@H]1O[C@H](CO)[C@@H](O)[C@H](O)[C@H]1O [Lanatoside A],> 50
7,O=C(O)Cn1c(C(=O)Nc2nc(-c3ccccc3Cl)cs2)cc2ccccc21 [Lintitript],> 50
8,O=C1c2ccccc2C(=O)c2cc(Cl)ccc21 [2-Chloroanthraquinone],> 5
9,O=C(O)c1ccccc1Cl [2-Chlorobenzoic acid],> 90
10,"O=C(O)c1cc(Cl)cc(Cl)c1 [3,5-Dichlorobenzoic acid]",> 90
11,CC1(C)[C@H](C=C(Cl)Cl)[C@H]1C(=O)OCc1c(F)c(F)cc(F)c1F [Transfluthrin],> 50
12,CC1(O)CCC(C(C)(C)O)CC1 (stereo not shown) [Terpin],> 50
13,N[C@@H]1CN(c2c(F)cc3c(=O)c(C(=O)O)cn([C@@H]4C[C@@H]4F)c3c2Cl)CC12CC2 [Sitafloxacin],> 50
14,Cc1cc(CC(C)CC(C)(C)C)n(O)c(=O)c1 (stereo not shown) [Piroctone olamine],33
15,COCCOC [Ethylene glycol dimethyl ether],> 90
16,C[C@]12CC[C@@H]3c4ccc(O)cc4CC[C@H]3[C@@H]1CC[C@H]2O [17alpha-Estradiol],> 90
17,NS(=O)(=O)C(F)(F)C(F)(F)C(F)(F)C(F)(F)C(F)(F)C(F)(F)C(F)(F)C(F)(F)F [Perfluorooctanesulfonamide],52.8
18,O=S(=O)(O)CCCN1CCOCC1 [4-Morpholinepropanesulfonic acid],> 90
19,CCC=CCCCCO (stereo in doubt) [(Z)-5-Octen-1-ol],> 90
20,"Cc1cc(Cl)c(C)cc1Cl [1,4-Dichloro-2,5-dimethylbenzene]",> 90
21,CNCCC=C1c2ccccc2CCc2ccccc21 [Nortriptyline hydrochloride],12.6
22,CS(=O)(=O)c1ccc(C(=O)C2C(=O)CCCC2=O)c([N+](=O)[O-])c1 [Mesotrione],> 90
23,O=C(Cl)c1ccccc1[N+](=O)[O-] [2-Nitrobenzoyl chloride],> 90
24,CC1CS(=O)(=O)CCN1/N=C/c1ccc([N+](=O)[O-])o1 (stereo not shown) [Nifurtimox],8.46
25,CC(C)(Oc1ccc(C2CC2(Cl)Cl)cc1)C(=O)O (stereo not shown) [Ciprofibrate],> 90
26,O=C(Oc1ccccc1)c1cccc(C(=O)Oc2ccccc2)c1 [Diphenyl isophthalate],> 100
27,Nc1cccc2c(=O)[nH][nH]c(=O)c12 [Luminol],> 90
28,OCCCCCCCl [6-Chlorohexan-1-ol],> 100
29,O=NN1CCCCCC1 [N-Nitrosohexamethyleneimine],> 90

# Same assay, conditions: rat, gh3-tre-luc cells, AC50 (uM) modified / 1000, Tox21_110001=Tox21_111175; viability, 1 nM T3 present, 24 h
row,SMILES,CC50 at 24 h [µM]
1,CCOC(=O)CC(SP(=S)(OC)OC)C(=O)OCC (stereo not shown) [Malathion],> 50

# Same assay, conditions: rat, gh3-tre-luc cells, AC50 (uM) modified / 1000, Tox21_110001=Tox21_112891; viability, 1 nM T3 present, 24 h
row,SMILES,CC50 at 24 h [µM]
1,"CCN(CC)CCc1c[nH]c2ccccc12 [N,N-Diethyltryptamine fumarate]",> 100

# Same assay, conditions: rat, gh3-tre-luc cells, AC50 (uM) modified / 1000, Tox21_110001=Tox21_300606; viability, 1 nM T3 present, 24 h
row,SMILES,CC50 at 24 h [µM]
1,O=C(O)C(F)(F)C(F)(F)C(F)(F)C(F)(F)C(F)(F)C(F)(F)C(F)(F)C(F)(F)C(F)(F)C(F)(F)F [Perfluoroundecanoic acid],> 90

# Same assay, conditions: rat, gh3-tre-luc cells, AC50 (uM) modified / 1000, Tox21_110001=Tox21_301429; viability, 1 nM T3 present, 24 h
row,SMILES,CC50 at 24 h [µM]
1,ClC1=C(Cl)[C@]2(Cl)[C@H]3[C@H]([C@H]4C=C[C@@H]3C4)[C@@]1(Cl)C2(Cl)Cl [Isodrin],66.4

# Same assay, conditions: rat, gh3-tre-luc cells, AC50 (uM) modified / 1000, Tox21_110001=Tox21_400048; viability, 1 nM T3 present, 24 h
row,SMILES,CC50 at 24 h [µM]
1,CCOC(=O)CC(SP(=S)(OC)OC)C(=O)OCC (stereo not shown) [Malathion],> 90
